Experimental data published in ChEMBL document CHEMBL5143537, “Quinazoline-based hydroxamic acid derivatives as dual histone methylation and deacetylation inhibitors for potential anticancer agents” (Bioorg Med Chem, 2022).

Assays:
[1] = target: Histone deacetylase 1 (Homo sapiens, UniProt Q13547); experiment: Inhibition of recombinant human HDAC1 expressed in baculovirus infection system using Ac-peptide-AMC as substrate preincubated for 15 mins followed by substrate addition and measured after 60 mins by fluorescence assay
[2] = target: T1, Protein deacetylase HDAC6 (Homo sapiens, UniProt Q9UBN7); experiment: Inhibition of recombinant HDAC6 (unknown origin) using Ac-peptide-AMC as substrate preincubated for 15 mins followed by substrate addition and measured after 60 mins by fluorescence assay
T1 sequence (Q9UBN7 whole entry): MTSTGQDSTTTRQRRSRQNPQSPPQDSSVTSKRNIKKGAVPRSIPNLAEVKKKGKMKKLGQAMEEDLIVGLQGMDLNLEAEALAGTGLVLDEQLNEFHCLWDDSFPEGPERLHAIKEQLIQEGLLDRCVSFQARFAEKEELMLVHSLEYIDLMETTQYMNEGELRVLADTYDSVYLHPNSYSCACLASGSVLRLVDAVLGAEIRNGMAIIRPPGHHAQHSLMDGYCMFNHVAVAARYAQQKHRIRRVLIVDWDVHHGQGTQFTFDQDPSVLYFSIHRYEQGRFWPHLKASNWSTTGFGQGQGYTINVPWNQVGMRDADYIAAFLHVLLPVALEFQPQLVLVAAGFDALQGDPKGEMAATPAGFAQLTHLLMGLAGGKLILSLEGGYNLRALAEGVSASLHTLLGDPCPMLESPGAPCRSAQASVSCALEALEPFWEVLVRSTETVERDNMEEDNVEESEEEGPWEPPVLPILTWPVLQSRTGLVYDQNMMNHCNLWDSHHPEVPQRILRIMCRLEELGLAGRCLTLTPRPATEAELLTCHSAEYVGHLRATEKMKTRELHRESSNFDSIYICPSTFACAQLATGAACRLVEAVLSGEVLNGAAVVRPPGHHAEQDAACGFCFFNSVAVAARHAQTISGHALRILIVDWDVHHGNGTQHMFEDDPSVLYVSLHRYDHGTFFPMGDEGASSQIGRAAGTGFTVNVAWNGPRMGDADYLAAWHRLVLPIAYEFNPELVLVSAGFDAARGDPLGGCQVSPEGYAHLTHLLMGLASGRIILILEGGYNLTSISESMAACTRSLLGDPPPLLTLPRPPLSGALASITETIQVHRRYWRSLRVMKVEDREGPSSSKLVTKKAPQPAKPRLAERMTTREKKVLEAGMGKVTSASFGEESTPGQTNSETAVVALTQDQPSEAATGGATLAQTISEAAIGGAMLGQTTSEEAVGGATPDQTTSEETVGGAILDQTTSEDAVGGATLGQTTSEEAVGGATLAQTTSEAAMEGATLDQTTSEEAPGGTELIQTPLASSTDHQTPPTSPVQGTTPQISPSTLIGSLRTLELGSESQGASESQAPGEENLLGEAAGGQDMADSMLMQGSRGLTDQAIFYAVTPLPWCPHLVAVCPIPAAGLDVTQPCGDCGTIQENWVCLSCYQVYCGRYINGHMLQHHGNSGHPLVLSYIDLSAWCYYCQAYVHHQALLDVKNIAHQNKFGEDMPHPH

[3] = target: T2, Histone-lysine N-methyltransferase EHMT1 (Homo sapiens, UniProt Q9H9B1); experiment: Inhibition of GLP (unknown origin)
T2 sequence (Q9H9B1 whole entry): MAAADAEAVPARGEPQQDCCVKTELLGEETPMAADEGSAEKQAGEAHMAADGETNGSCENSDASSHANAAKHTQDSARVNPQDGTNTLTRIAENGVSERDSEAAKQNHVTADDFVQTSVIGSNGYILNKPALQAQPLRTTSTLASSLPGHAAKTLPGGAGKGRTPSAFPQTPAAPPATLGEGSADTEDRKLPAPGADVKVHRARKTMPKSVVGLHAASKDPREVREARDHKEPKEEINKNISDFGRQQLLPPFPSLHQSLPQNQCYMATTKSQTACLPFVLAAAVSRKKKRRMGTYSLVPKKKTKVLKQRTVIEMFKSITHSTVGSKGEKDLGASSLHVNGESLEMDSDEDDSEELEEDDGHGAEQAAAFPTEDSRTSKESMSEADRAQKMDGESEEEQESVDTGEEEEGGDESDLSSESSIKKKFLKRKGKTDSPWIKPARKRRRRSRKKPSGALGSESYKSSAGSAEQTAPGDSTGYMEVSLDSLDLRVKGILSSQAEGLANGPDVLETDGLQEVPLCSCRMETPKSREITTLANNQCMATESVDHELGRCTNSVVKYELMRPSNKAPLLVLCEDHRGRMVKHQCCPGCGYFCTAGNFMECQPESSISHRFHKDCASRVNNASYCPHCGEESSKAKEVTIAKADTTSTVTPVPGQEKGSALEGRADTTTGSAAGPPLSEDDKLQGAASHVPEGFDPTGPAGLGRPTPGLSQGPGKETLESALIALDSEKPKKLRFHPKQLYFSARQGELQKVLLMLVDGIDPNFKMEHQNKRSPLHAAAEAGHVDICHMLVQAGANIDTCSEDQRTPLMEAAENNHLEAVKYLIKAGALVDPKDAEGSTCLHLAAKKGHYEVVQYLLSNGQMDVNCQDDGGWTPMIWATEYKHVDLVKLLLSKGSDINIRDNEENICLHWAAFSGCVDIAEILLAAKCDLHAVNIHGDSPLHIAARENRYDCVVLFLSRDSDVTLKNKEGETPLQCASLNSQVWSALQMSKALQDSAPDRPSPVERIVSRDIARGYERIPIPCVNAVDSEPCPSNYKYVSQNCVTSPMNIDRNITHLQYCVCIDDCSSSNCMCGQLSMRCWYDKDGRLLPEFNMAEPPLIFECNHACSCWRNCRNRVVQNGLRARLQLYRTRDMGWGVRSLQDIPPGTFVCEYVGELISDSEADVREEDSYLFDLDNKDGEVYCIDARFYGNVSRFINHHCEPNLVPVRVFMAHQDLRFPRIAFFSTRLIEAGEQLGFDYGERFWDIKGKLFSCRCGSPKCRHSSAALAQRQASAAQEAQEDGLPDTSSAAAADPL

[4] = system: A-431; experiment: Antiproliferative activity against human A-431 cells measured after 72 hrs by MTT assay; type: functional, cell-based; conditions: A-431, 72 h
[5] = system: HT-29; experiment: Antiproliferative activity against human HT-29 cells measured after 72 hrs by MTT assay; type: functional, cell-based; conditions: HT-29, 72 h
[6] = system: HeLa; experiment: Antiproliferative activity against human HeLa cells measured after 72 hrs by MTT assay; type: functional, cell-based
[7] = system: K562; experiment: Antiproliferative activity against human K562 cells measured after 72 hrs by MTT assay; type: functional, cell-based; conditions: K562, 72 h
[8] = system: MDA-MB-231; experiment: Antiproliferative activity against human MDA-MB-231 cells measured after 72 hrs by MTT assay; type: functional, cell-based; conditions: MDA-MB-231, 72 h
[9] = system: HCT-116; experiment: Antiproliferative activity against human HCT-116 cells measured after 72 hrs by MTT assay; type: functional, cell-based; conditions: HCT-116, 72 h
[10] = system: HepG2; experiment: Antiproliferative activity against human HepG2 cells measured after 72 hrs by MTT assay; type: functional, cell-based; conditions: HepG2, 72 h
[11] = Cytotoxicity against human HL7702 cells measured after 72 hrs by MTT assay; conditions: HL7702 (L02) cells
[12] = Half life in rat liver microsomes at 1 uM by LC-MS/MS analysis; type: ADME, Microsome
[13] = Intrinsic clearance in rat liver microsomes at 1 uM by LC-MS/MS analysis; type: ADME, Microsome; conditions: read-out: CLH

Sequence of Histone deacetylase 1 (Q13547 whole entry): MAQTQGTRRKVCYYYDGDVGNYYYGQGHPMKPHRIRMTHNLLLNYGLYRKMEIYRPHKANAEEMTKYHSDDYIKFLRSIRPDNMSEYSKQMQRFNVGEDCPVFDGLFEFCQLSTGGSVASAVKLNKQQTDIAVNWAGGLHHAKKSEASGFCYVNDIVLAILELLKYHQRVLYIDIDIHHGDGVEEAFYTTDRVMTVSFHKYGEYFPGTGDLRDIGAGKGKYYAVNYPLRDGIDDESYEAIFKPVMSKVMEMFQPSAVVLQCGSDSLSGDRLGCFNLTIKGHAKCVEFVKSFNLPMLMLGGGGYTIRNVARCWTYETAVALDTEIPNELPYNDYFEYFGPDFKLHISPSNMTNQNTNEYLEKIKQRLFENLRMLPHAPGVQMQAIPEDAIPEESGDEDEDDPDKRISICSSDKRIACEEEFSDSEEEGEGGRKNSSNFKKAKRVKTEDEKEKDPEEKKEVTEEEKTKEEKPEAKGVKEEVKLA

IC50 [1] [µM] | IC50 [2] [µM] | IC50 [3] [µM] | IC50 [4] [µM] | IC50 [5] [µM] | IC50 [6] [µM] | IC50 [7] [µM] | IC50 [8] [µM] | IC50 [9] [µM] | IC50 [10] [µM] | half-life at 1 µM [12] [min] | CLint scaled at 1 µM [13] [L/h/kg] | Compound | IC50 at 72 h [11] [µM]
0.0084 | 0.131 | 0.097 | > 50 | 47.4 | 37.4 | > 50 | > 50 | 25.7 | > 50 |  |  | COc1cc2nc(NCCCCCC(=O)NO)nc(NC3CCN(C(C)C)CC3)c2cc1OC | > 50
 |  |  | 3.38 | 1.35 | 1.74 | 0.92 | 3.23 | 5.01 | 2.69 |  |  | COc1cc2c(NC3CCN(C(C)C)CC3)nc(N3CCC(F)(F)CC3)nc2cc1OCCCN1CCCC1 | 3.23
0.0032 | 0.017 | 0.0092 | 16.9 | 12.9 | 8.85 | 7.89 | 7.89 | 44.5 | 2.13 |  |  | COc1cc2nc(NCCCCCC(=O)NO)nc(NC3CCN(Cc4ccccc4)CC3)c2cc1OC | 19.8
0.0042 | 0.012 | 0.011 | 23.1 | 4.21 | 17.4 | 5.21 | > 50 | 3.75 | 4.72 |  |  | COc1cc2nc(NCCCCCCC(=O)NO)nc(NC3CCN(C(C)C)CC3)c2cc1OC | 12.7
0.0058 | 0.016 | 0.021 | > 50 | 12.9 | 9.49 | 17 | > 50 | > 50 | 6.76 |  |  | COc1cc2nc(NCCCCCCC(=O)NO)nc(NC3CCN(C)CC3)c2cc1OC | > 50
0.094 | 0.05 | 0.19 | > 50 | > 50 | > 50 | > 50 | > 50 | > 50 | > 50 |  |  | COc1cc2nc(N3CCN(Cc4ccc(/C=C/C(=O)NO)cc4)CC3)nc(NC3CCN(Cc4ccccc4)CC3)c2cc1OC | > 50
 |  |  |  |  |  |  |  |  |  | 16.2 | 9.17 | O=C(c1ccc(F)cc1)C1CCN(CCn2c(=O)[nH]c3ccccc3c2=O)CC1 [KETANSERIN] | 
0.051 | 0.024 | 0.0016 | > 50 | 8 | 29.7 | 10.1 | > 50 | > 50 | 12.1 |  |  | COc1cc2nc(N3CCN(CCCCCC(=O)NO)CC3)nc(NC3CCN(C(C)C)CC3)c2cc1OC | > 50
0.0013 | 0.051 | 0.011 | 5.86 | 5.31 | 6.39 | 9.21 | 44.2 | 6.93 | 13.4 |  |  | COc1cc2nc(NCCCCCC(=O)NO)nc(NC3CCN(C)CC3)c2cc1OC | 31.7
